Measurements taken from patent US4221794A, “Method of imparting immunomodulating and antiviral activity” (Newport Pharmaceuticals International, Inc., priority 1979, dated 1980).
Counter-ions that a name gives are not always drawn.

Columns and labels:
[1] = test system: influenza virus; experiment: Anti-influenza activity (overall); format: cell-based, several strains of A and B sub-types
[2] = test system: (Russian) influenza virus; experiment: Inhibition of influenza virus replication, Russian; format: cell-based
[3] = test system: mouse lymphocytes; experiment: Mitogen (Con A) induced mouse lymphocyte (spleen cell) proliferation; format: cell-based; details: for Maximum Percent Change, Mitogen Induced (Con A) Mouse Lymph. Prolif.: plus = immunostimulating, minus = immunoinhibiting, 0 = neither
Source text: (§1) The following three assay procedures are used to evaluate the ability of the test substances to modulate the activity of several classes of cells in the immune system. In these systems it is possible to identify both immunopotentiating activity (evidence by an enhancement of the parameter examined) as well as immunosuppressant activity (evidenced by an inhibition of the parameter examined).
1. Mitogen-Induced Mouse Spleen Cell Assay
Mouse spleen cells contain a population of both B and T lymphocytes which can be stimulated by a number of foreign substances (e.g., plant mitogens such as Con A) to proliferate. This enhanced proliferation is an indication of enhanced cell mediated immunity. The method below describes the system used to evaluate test substances as immunopotentiators.
Concanavalin A (Calbiochem, La Jolla, California), Lot #210073, lyophilized in NaCl, was prepared first as a 1% solution and diluted as a 2×concentration for each dilution (0.5, 1.0, 2.5 μg/ml).
Six to eight week old male Balb/c and C3 H inbred mice were obtained from the following sources: Flow Research Animals, Inc., Dublin, Virginia; Charles River Breeding Laboratories, Wilmington, Massachusetts; Laboratory Supply Company, Indianapolis, Indiana; and Lionel Strong Foundation, San Diego, California.
Three to five mice were sacrificed by cervical dislocation and the spleens aseptically removed. Pooled spleens were minced and teased with sterile forceps; then strained through a double layer of nylon mesh. The cell suspension was washed once with 15 ml of RPMI 1640 supplemented with 5% fetal calf serum and antibiotics. Cells were cultured at a concentration of 10^6 cells/0.1 ml/well in micro-plates. Cultures were incubated in the presence or absence of mitogen in a humidified atmosphere containing 5% CO2 for 48 hours. The test compound was added to cultures at various concentrations concommitant with mitogen.
Proliferation was assayed by the degree of incorporation of 1.0 μCi of [^3 H] thymidine over an 18 hour incubation period. Cultures were harvested by a MASH unit (Otto Hiller Co., Madison, Wisconsin) and thymidine incorporation was assayed by liquid scintillation spectrometry. Cultures were performed in triplicate and data are expressed as means plus or minus the standard error of the experimental means. Drug stimulation indices over control values were also calculated and portrayed graphically.
(§2) Table 4 above presents the results of an evaluation of a number of these subject compounds as potentiators of the immune response. Three different test systems were used. The first involves a measure of the ability of the test compound to enhance the ability of mouse lymphocytes to proliferate in response to a plant mitogen (Con A). The second involves measuring the ability of the test compounds to enhance human lymphocyte proliferation in response to a second plant mitogen (PHA). The third system measures the ability of these test substances to enhance macrophage proliferation in response to a natural lymphokine (MMF, Macrophage Mitogenic Factor).

[4] = test system: influenza virus; experiment: microbe, parasite or virus in culture; format: cell-based, influenza virus Type A/USSR 90 (HeLa cell cultures)
[5] = test system: human peripheral blood lymphocytes; experiment: Mitogen (PHA) induced human lymphocyte proliferation; format: cell-based; details: plus = immunostimulating, minus = immunoinhibiting, 0 = neither
[6] = test system: immune response; experiment: Immunomodulating activity (overall); format: cell-based
Source text: as §1, §2

[7] = test system: guinea pig macrophages; experiment: Lymphokine (MMF) induced guinea pig macrophage proliferation; format: cell-based; details: plus = immunostimulating, minus = immunoinhibiting, 0 = neither
Method: 3. The macrophage represents a subpopulation of white blood cells which is an important component of the immune system in control of both cellular and humoral immunity. The assay system described below evaluates the substances studied as potentiators of macrophage function.
Phytohemagglutinin (PHA) (HA-17) was purchased from Burroughs Wellcome. A preparation containing Macrophage Mitogen Factor (MMF) and Macrophage Activating Factor (MAF) was prepared from antigen-stimulated immune lymph node lymphocytes (guinea pig) as previously described by Hadden et al, Nature 257, 483-485 (1975). […] The active fraction was employed in both the proliferation and activation assays.
Ficoll-hypaque purified human peripheral blood lymphocytes were prepared and PHA-induced lymphocyte proliferation was assayed by the incorporation of tritiated thymidine as described in Hadden et al., Cell. Immunol. 20, 98-103 (1975). Each compound was analyzed in the presence of suboptimal, optimal and supraoptimal concentrations of PHA (0.001, 0.01, 0.1 units/ml respectively). Paraffin oil-induced guinea pig peritoneal macrophages were prepared and incubated as monolayer culture (>98% pure macrophages). Lymphokine (MMF)-induced proliferation was assayed by the incorporation of tritiated thymidine at 3 and 5 days of culture as described, Hadden et al, Nature 257, 483-485 (1975). Lymphokine (MAF)-induced macrophage activation to kill Listeria monocytogenes following 5 days of culture in the presence or absence of MAF was performed during a 6 hour period as described in Hadden and England, Immunopharmacology, pages 87-100 (Plenum Press, 1977). Phagocytosis was quantitated during a 20-minute exposure to Listeria monocytogenes by counting the number of macrophages containing bacteria and the number of bacteria per phagocytic cell on gram stained monolayers in Labtek chambers. Intracellular killing of bacteria was evaluated by counting the number of cells containing bacteria and the number of bacteria/cell 6 hours after the initial 20 minute exposure. Parallel experiments in which macrophages were lysed and intracellular bacteria were cultured confirm the validity of bacterial activity determined by this manner in this system. The drugs were employed in each of the three systems over serial log concentration range in triplicate in the presence and absence of mitogen or lymphokine. Each type of experiment was performed at least three times. Previous experiments indicate a parallelism of response to pharmacologic modulation in the proliferation and achivation assays.
as §2

[8] = test system: L-1210 leukemic cells; experiment: Anti-leukemic activity, inhibition of L-1210 growth; format: cell-based, mouse; details: 96 hours
Method: Anti-Leukemic Activity (Inhibition of L-1210 Growth)
Leukemic cells isolated from mice bearing the L-1210 tumor are cultured in vitro and their growth can be measured by counting the number of cells in the culture over a period of time. The incorporation of a test substance into the media will prevent the growth of the leukemic cells, an indication of an effective anti-leukemic agent.
I50 (concentration of drug inhibiting growth of L-1210) by % for the tested compounds was as follows:
To Measure Inhibition of Leukemic Cell (L-1210) Growth
Check to see that there is adequate cell growth in the stock cultures. Use cells 48-72 hours after transfers are done.
Weigh out the drugs at 50 times the desired final concentration and made serial dilutions.
Make up the final medium using 500 mls McCoy's 5A medium, 15% fetal calf serum, 5 mls penicillin-streptomycin solution, and 5 mls antibiotic-antimycotic solution and let it stand at room temperature.
Using sterile technique, add 0.1 ml of the drug dilutions to each tube.
Add an appropriate quantity of cells to the prepared medium. After mixing, remove a 0.5 ml sample, place it in a vial containing […] of saline, and count it on the Coulter Counter. Multiply the count by 40 to compensate for the 40 fold dilution (0.5 ml into […] and record the inoculum.
Add 5 mls of cell suspension to each tube. Swirl the bottle every 4 tubes to insure a more uniform distribution of cells.
Tighten the caps and place in the CO2 incubator at 36°-38° for 96 hours.
After 96 hours remove the tubes from the incubator and count the contents of each on the Coulter Counter. Multiply all counts by 40 and average the four counts for each drug dilution. If the count is less than the inoculum, record 100% inhibition. If the count is greater than the average of the eight control counts, record 0% inhibition. For all other counts use the following formula: [formula] 100%-% servival=inhibition of growth due to treatment.

[9] = test system: Influenza A Swine 1976 (Hlsw -N1); format: cell-based; details: listed as 15418
[10] = 1.0-10 (unit not printed), listed as 15418

SMILES: CCCCCC[C@H]([C@H](C)O)n1cnc2c(N)ncnc21 (relative stereo) [NPT 15426, ERYTHRO-9-(2-HYDROXY-3-NONYL)-ADENINE. HCl]
- anti-influenza activity (in words) ([1]; compound by itself): significant anti-influenza activity
- % Inhibition ([2]; 0.1-1.0 μg/ml): 20-30%
- % Inhibition ([2]; 1.0-10 μg/ml): 30-50%
- % Inhibition ([2]; 10-100 μg/ml): 50-70%
- % Inhibition ([2]; >100 μg/ml): 50-70%
- % Stimulation, Mitogen Induced Murine Lymphocyte Proliferation ([3]; 01-1.0 μg/ml): 0%
- % Stimulation, Mitogen Induced Murine Lymphocyte Proliferation ([3]; 1.0-10 μg/ml): 0%
- Maximum Percent Change, Mitogen Induced (Con A) Mouse Lymph. Prolif. ([3]; 1.0-10 (unit not given)): -85%
- % Stimulation, Mitogen Induced Murine Lymphocyte Proliferation ([3]; 10-100 μg/ml): 0%
- Maximum Percent Change, Mitogen Induced (Con A) Mouse Lymph. Prolif. ([3]; 10-100 (unit not given)): -91%
- Maximum Percent Change, Mitogen Induced (Con A) Mouse Lymph. Prolif. ([3]; .01-1.0 (unit not given)): -50%
- inhibition at 10 µg/mL ([4]; unidentified influenza virus, read-out: % Inhibition of Hemadsorption Foci, Test Compound Conc. <10 μg/ml): 50%
- inhibition at 100 µg/mL ([4]; unidentified influenza virus, read-out: % Inhibition of Hemadsorption Foci, Test Compound Conc. >100 μg/ml): 100%
- Maximum Percent Change, Mitogen Induced (PHA) Human Lymph. Prolif. ([5]; 1.0-10 (unit not given)): -41%
- Maximum Percent Change, Mitogen Induced (PHA) Human Lymph. Prolif. ([5]; .01-1.0 (unit not given)): 6%

SMILES: CCCCCCC(CO)n1cnc2c(=O)[nH]cnc21 (stereo not shown) [NPT 15418]
- potentiation of anti-influenza activity by DIP.PAcBA salt [1]: does potentiate the anti-influenza activity and Yes
- inhibit the replication of different strains of influenza virus (number of strains) ([1]; concentrations ranging from 1-150 μg/ml): at least 4 different strains
- potentiation of the immune response (in words) [6]: potentiation of the immune response has been observed
- Potentiation of immunopotentiation by DIP.PAcBA salt ([6]; salt compared with parent compound): Yes
- Maximum Percent Change, Lymphokine Induced (MMF) Guinea Pig Mac. Prolif. [7, 10]: 80%
- Maximum Percent Change, Lymphokine Induced (MMF) Guinea Pig Mac. Prolif. ([7]; .01-1.0 (unit not given)): 12%
- I50 (concentration of drug inhibiting growth of L-1210) [8]: 70 micrograms/ml
- % Inhibition [9]: > 70%
- % Stimulation, Mitogen Induced Murine Lymphocyte Proliferation ([3]; 01-1.0 μg/ml, listed as 15418): 20-30%
- % Stimulation, Mitogen Induced Murine Lymphocyte Proliferation ([3]; 1.0-10 μg/ml, listed as 15418): > 50%
- Maximum Percent Change, Mitogen Induced (Con A) Mouse Lymph. Prolif. [3, 10]: 73%
- % Stimulation, Mitogen Induced Murine Lymphocyte Proliferation ([3]; 10-100 μg/ml, listed as 15418): 20-30%
- Maximum Percent Change, Mitogen Induced (Con A) Mouse Lymph. Prolif. ([3]; 10-100 (unit not printed), listed as 15418): 26%
- Maximum Percent Change, Mitogen Induced (Con A) Mouse Lymph. Prolif. ([3]; .01-1.0 (unit not printed), listed as 15418): 41%
- % Inhibition of Hemadsorption Foci ([4]; Test Compound Conc. <10 μg/ml): 16%
- % Inhibition of Hemadsorption Foci ([4]; Test Compound Conc. >100 μg/ml): 52%
